Measurements reported in patent publication US20030186939A1, “Omega-cycloalkyl-prostaglandin E2 derivatives” (priority 1997, published 2003).
pKi: −log10 of the molar value.

Experiments:
Settings in all cases: competition of 2.5 nM 3H-PGE2 binding, CHO cell membrane fraction; more polar compounds
mouse EP1 = biological target: T1, mouse EP1 (Mus musculus, UniProt P35375); experiment: Binding assay using expression cell of prostanoide receptor subtype (EP1)
T1 construct: expressed in transfected cells; host or cells: CHO cells (membrane fraction)
T1 sequence (P35375 1-405): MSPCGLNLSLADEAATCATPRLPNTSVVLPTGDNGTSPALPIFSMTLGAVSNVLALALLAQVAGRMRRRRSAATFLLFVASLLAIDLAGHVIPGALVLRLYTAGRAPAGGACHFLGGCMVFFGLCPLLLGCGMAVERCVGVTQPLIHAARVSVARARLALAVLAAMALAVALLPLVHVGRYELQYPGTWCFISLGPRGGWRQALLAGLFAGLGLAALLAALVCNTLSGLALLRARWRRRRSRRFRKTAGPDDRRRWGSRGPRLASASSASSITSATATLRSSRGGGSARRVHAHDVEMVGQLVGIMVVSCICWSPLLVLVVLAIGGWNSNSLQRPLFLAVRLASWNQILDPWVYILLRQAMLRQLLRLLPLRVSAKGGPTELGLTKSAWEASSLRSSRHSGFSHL
Procedure: (§1) The preparation of membrane fraction was carried out according to the method of Sugimoto et. al. [J. Biol. Chem. 267, 6463-6466 (1992)], using expression CHO cell of the prostanoide receptor subtype (mouse EP1, EP2, EP3α, EP4).
(§2) The standard assay mixture contained membrane fraction (0.5 mg/ml), and [^3H]-PGE2 in a final volume of 200 μl was incubated for 1 hour at room temperature. The reaction was terminated by the addition of 3 ml of ice-cold buffer. The mixture was rapidly filtered through a GF/B glass filter. The radioactivity associated with the filter was measured by liquid scintillation counting.
(§3) Kd and Bmax values were determined from Scatchard plots [Ann. N.Y. Acad. Sci., 51, 660 (1949)]. Non-specific binding was calculated as the bound in the presence of an excess (2.5 μM) of unlabeled PGE2. In the experiment for competition of specific ^3H-PGE2 binding by the compounds of the present invention, 2.5 nM of ^3H-PGE2 and various concentrations of compounds of the present invention were added. The following buffer was used in all reactions.
(§4) Buffer: 10 mM potassium phosphate (pH 6.0), 1 mM EDTA, 10 mM MgCl2, 0.1 M NaCl
(§5) In the example compounds, all of values were shown the more polar compounds.
(§6) The dissociation constant (Ki) of each compound was calculated by the following equation.

mouse EP2 = biological target: T2, mouse EP2 (Mus musculus, UniProt Q62053); experiment: Binding assay using expression cell of prostanoide receptor subtype (EP2)
T2 construct: expressed in transfected cells; host or cells: CHO cells (membrane fraction)
T2 sequence (Q62053 whole entry): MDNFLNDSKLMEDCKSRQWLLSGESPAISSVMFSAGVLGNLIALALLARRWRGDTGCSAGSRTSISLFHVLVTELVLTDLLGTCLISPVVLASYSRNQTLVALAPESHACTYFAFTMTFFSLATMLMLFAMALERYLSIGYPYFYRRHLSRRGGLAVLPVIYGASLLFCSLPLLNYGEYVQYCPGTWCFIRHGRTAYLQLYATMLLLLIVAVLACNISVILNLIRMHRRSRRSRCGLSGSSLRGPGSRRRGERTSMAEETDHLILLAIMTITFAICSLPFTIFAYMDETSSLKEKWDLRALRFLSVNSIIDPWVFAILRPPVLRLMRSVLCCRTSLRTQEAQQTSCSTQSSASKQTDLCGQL
Procedure: as §2
(§7) Kd and Bmax values were determined from Scatchard plots [Ann. […] The following buffer was used in all reactions.
as §4, §6

mouse EP3α = biological target: T3, mouse EP3α (Mus musculus, UniProt P30557); experiment: Binding assay using expression cell of prostanoide receptor subtype (EP3α)
T3 construct: expressed in transfected cells; host or cells: CHO cells (membrane fraction)
T3 sequence (P30557 1-365): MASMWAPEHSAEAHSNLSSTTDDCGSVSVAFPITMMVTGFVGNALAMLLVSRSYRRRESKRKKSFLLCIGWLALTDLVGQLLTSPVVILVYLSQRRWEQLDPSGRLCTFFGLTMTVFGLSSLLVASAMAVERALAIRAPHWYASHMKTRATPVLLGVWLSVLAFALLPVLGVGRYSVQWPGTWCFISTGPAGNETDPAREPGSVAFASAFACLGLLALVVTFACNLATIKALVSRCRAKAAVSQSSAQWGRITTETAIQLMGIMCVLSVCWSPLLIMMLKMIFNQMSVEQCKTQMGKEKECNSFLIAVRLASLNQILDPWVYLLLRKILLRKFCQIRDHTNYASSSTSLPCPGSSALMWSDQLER
Procedure: as §1, §2, §3, §4, §5, §6

mouse EP4 = biological target: T4, mouse EP4 (Mus musculus, UniProt P32240); experiment: Binding assay using expression cell of prostanoide receptor subtype (EP4)
T4 construct: expressed in transfected cells; host or cells: CHO cells (membrane fraction)
T4 sequence (P32240 whole entry): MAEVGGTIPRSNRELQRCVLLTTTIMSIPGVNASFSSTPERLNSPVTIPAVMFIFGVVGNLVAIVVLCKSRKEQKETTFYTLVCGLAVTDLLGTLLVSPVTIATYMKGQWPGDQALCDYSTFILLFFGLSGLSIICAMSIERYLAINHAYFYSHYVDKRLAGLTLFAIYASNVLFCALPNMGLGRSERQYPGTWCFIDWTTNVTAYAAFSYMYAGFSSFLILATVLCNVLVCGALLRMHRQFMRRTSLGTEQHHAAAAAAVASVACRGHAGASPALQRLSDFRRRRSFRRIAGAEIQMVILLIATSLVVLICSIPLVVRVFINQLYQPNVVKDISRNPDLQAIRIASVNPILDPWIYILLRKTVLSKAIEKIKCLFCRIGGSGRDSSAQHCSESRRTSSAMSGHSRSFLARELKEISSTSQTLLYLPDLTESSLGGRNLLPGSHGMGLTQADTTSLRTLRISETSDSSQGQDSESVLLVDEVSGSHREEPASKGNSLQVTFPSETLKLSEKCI
Procedure: as §2, §7, §4, §6

SMILES | pKi (mouse EP1) | pKi (mouse EP2) | pKi (mouse EP3α) | pKi (mouse EP4)
C=CCCC1(C(O)C/C=C/[C@H]2[C@H](O)CC(=O)[C@@H]2C/C=C\CCCC(=O)O)CCC1 (stereo partly drawn) [Example 6(1), (5Z, 11α, 13E)-17,17-propano-20,20-methylene-11,16-dihydroxy-9-oxoprosta-5,13-dienoic acid] | < 5.00 | 7.44 | < 5.00 | < 5.00
CCCC1(C(O)C/C=C/[C@H]2[C@H](O)CC(=O)[C@@H]2C/C=C\CCCC(=O)O)CCC1 (stereo partly drawn) [compound 4] | < 5.00 | 7.04 | < 5.00 | < 5.00
CCC1(C(O)C/C=C/[C@H]2[C@H](O)CC(=O)[C@@H]2C/C=C\CCCC(=O)O)CCC1 (stereo partly drawn) [Example 4(10), (5Z, 11α, 13E)-11,16-dihydroxy-9-oxo-17,17-propano-20-norprosta-5,13-dienoic acid] | < 5.00 | 7.52 | < 5.00 | < 5.00
C=CCC1(C(O)C/C=C/[C@H]2[C@H](O)CC(=O)[C@@H]2C/C=C\CCCC(=O)O)CCC1 (stereo partly drawn) [Example 4(5), (5Z, 11α, 13E)-11,16-dihydroxy-9-oxo-17,17-propanoprosta-5, 13-19-trienoic acid] | < 5.00 | 7.49 | < 5.00 | < 5.00
C=CC1(C(O)C/C=C/[C@H]2[C@H](O)CC(=O)[C@@H]2C/C=C\CCCC(=O)O)CCC1 (stereo partly drawn) [Example 6(5), (5Z, 11α, 13E)-17,17-propano-11,16-dihydroxy-9-oxo-20-norprosta-5,13,18-trienoic acid] | < 5.00 | 7.12 | < 5.00 | < 5.00
O=C(O)CCC/C=C\C[C@@H]1[C@@H](/C=C/CC(O)C2(CC3CC3)CCC2)[C@H](O)C[C@H]1Cl (stereo partly drawn) [Example 17(2), (5Z, 9β, 11α, 13E)-17, 17-propano-19, 20-methano-11, 16-dihydroxy-9-chloroprosta-5, 13-dienoic acid] | 5.96 | 9.05 | 5.57 | 6.40
C=CCC1(C(O)C/C=C/[C@@H]2[C@@H](C/C=C\CCCC(=O)OC)[C@H](Cl)C[C@H]2O)CCC1 (stereo partly drawn) [Example 16(1), (5Z, 9β, 11α, 13E)-17, 17-propano-11, 16-dihydroxy-9-chloroprosta-5, 13, 19-trienoic acid•methylester] | < 5.00 | 7.02 | < 5.00 | < 5.00
CCCC1(C(O)C/C=C/[C@H]2[C@H](OC)CC(=O)[C@@H]2C/C=C\CCCC(=O)O)CCC1 (stereo partly drawn) [compound 10] | < 5.00 | 7.47 | < 5.00 | < 5.00
C=C1C[C@@H](O)[C@H](/C=C/CC(O)C2(CCC)CCC2)[C@H]1C/C=C\CCCC(=O)O (stereo partly drawn) [compound 12] | < 5.00 | 6.43 | < 5.00 | < 5.00
